{"source": "patent US7390925B2", "about": "“Oxime-containing acyl guanidines as beta-secretase inhibitors” (Bristol-Myers Squibb Company, priority 2006, dated 2008)", "data": [{"biological_target": "T1, BACE1 enzyme (Homo sapiens, UniProt P56817)", "T1 construct": "derived from HEK293 cells (Simmons, N. L. (1990)); endogenous in cells; washed 48,000 x g pellet of cell homogenate", "T1 sequence (P56817 46-501)": "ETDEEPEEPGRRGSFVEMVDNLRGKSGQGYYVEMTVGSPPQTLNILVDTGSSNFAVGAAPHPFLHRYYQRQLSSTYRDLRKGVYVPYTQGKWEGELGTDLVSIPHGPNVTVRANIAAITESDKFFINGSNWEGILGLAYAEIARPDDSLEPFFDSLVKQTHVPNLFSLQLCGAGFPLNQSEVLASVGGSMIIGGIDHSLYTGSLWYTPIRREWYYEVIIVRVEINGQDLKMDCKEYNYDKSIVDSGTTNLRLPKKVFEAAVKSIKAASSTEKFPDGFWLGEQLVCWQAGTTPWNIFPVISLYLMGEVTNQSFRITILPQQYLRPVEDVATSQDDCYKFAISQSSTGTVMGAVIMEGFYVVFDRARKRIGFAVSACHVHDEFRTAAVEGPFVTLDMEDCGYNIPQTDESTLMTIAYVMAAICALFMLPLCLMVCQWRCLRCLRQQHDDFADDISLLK", "test": "Radioligand displacement assay with a radiolabeled BACE inhibitor on HEK293-9B.A1 cell homogenate", "type": "binding", "details": "displacement of 1 nM radioligand, HEK293-9B.A1 homogenate, pH 5.0, 1.5 hr at 25° C.; read-out: Activity Rating (activity based on IC50 values)", "source_text": "There are a number of methods by which inhibitors of the BACE enzyme can be identified experimentally. The enzyme can be obtained from membrane samples from natural tissues or cultured cells or can be expressed recombinantly in a host cell by well known methods of molecular biology. The whole enzyme or a portion thereof can be expressed, for example, in bacterial, insect or mammalian cells to obtain a catalytically active enzyme species. The enzymatic activity and/or ligand binding capability of the enzyme can be assessed within these membrane samples, or the enzyme can be purified to varying extents. As an illustrative example, the nucleic acid sequence encoding the pro and catalytic domains of human BACE can be appended on the 5′ end with an untranslated and signal sequence from the gene for acetylcholinesterase, and on the 3′ end with a sequence encoding a poly-histidine tag. This cDNA can then be expressed in Drosophila melanogaster S2 cells in which the signal and pro sequences of the transcribed/translated protein are removed by cellular proteases and the catalytic domain, appended by a C-terminal poly-histidine tag, is secreted out into the cellular medium. The enzyme can then be purified from the culture medium by nickel affinity chromatography by methods well known to those trained in the art [Mallender, W. et al., (2001) “Characterization of recombinant, soluble beta-secretase from an insect cell expression system.” Mol. Pharmacol. 59: 619-626]. Similar strategies for expressing and purifying various forms of BACE in bacterial, mammalian and other cell types would be known to one skilled in the art. A preferred method for determining the potency of a test compound in binding to the BACE enzyme is by monitoring the displacement of a suitable radioligand.\nRadioligand displacement assays with a radiolabeled BACE inhibitor (WO 2004 013098, compound 3, where the methoxy group is substituted for C(^3H)3) were carried out using standard methods (Keen, M. (1999) in Receptor Binding Techniques (Walker, J. M. ed) p. 106 Humana Press, Totowa, N. J.). The HEK293-9B.A1 cell line, which overexpresses the BACE1 enzyme, was derived from HEK293 cells (Simmons, N. L. (1990) A cultured human renal epithelioid cell line responsive to vasoactive intestinal peptide. Exp. Physiol. 75:309-19.) by RAGE™ (Harrington, J. J. et al. (2001) Creation of genome-wide protein expression libraries using random activation of gene expression. Nat. Biotechnol. 19:440-5.; U.S. Pat. Nos. 6,410,266 and 6,361,972). T225 flask cultures of HEK293-9B.A1 were grown to 80% confluency in DMEM supplemented with 2 mM L-glutamine, 10 μg/ml penicillin, 10 μg/ml streptomycin, 3 μg/ml puromycin, 100 nM methotrexate, and 10% fetal bovine serum (Invitrogen, Carlsbad, Calif.), harvested, and resuspended at 2×10^8 cells per 10 ml of lysis buffer consisting of 50 mM HEPES pH 7.0 containing a protease inhibitor cocktail of AEBSF 104 μM, aprotinin 80 nM, leupeptin 2 μM, bestatin 4 μM, pepstatin A 1.5 μM, and E-64 1.4 μM (0.1% of protease inhibitor cocktail P8340, Sigma-Aldrich, St. Louis, Mo.) at 4° C. The resuspended cells were homogenized using a Polytron (Brinkman, Westbury, N.Y.) at setting 6 for 10 sec., then centrifuged at 48,000×g for 10 min. The resulting pellet was washed by repeating the resuspension, homogenization and centrifugation steps. The final pellet was resuspended in buffer at 4° C. to yield a total protein concentration of 5 mg/ml, then aliquots were frozen in liquid nitrogen for further storage at −70° C. Immediately before carrying out a binding assay, an aliquot of cell homogenate was thawed and diluted to a concentration of 100 μg/ml in assay buffer consisting of 50 mM HEPES pH 5.0 and 0.1% CHAPSO. […]", "units": {"IC50": "nM"}, "values": [{"compound": "COc1ccc(C(CC(=O)N=C(N)NCc2cc(Cl)c(NC(C)=O)c(Cl)c2)=NOCC(C)C)cc1", "note": "[Example 18, N-((4-acetamido-3,5-dichlorobenzylamino)(amino)-methylene)-3-(isobutoxyimino)-3-(4-methoxyphenyl)propanamide]", "IC50": "100 to 1000"}, {"compound": "N-(1-Amino-2-(4-amino-3,5-dichlorophenyl)ethylidene)-3-(methoxyimino)-3-(4-nitrophenyl)propanamide [Example 17]", "IC50": "100 to 1000"}, {"compound": "N-(2-(4-Acetamido-3,5-dichlorophenyl)-1-aminoethylidene)-3-(methoxyimino)-3-(3-methoxyphenyl)propanamide [Example 11]", "IC50": "100 to 1000"}, {"compound": "N-(1-Amino-2-(3-chloro-4-(2-(dimethylamino)acetamido)-5-methylphenyl)-ethylidene)-3-(methoxyimino)-3-(4-methoxyphenyl)propanamide [Example 4]", "IC50": "100 to 1000"}, {"compound": "N-(1-Amino-2-(4-amino-3,5-dichlorophenyl)ethylidene)-3-(methoxyimino)-3-(2-methoxyphenyl)propanamide [Example 13]", "IC50": "> 1000"}, {"compound": "N-(2-(4-Acetamido-3,5-dichlorophenyl)-1-aminoethylidene)-3-(4-nitrophenyl)-3-(methoxyimino)propanamide [Example 16]", "IC50": "< 100"}, {"compound": "N-(2-(4-Acetamido-3,5-dichlorophenyl)-1-aminoethylidene)-3-(methoxyimino)-3-(2-methoxyphenyl)propanamide [Example 12]", "IC50": "100 to 1000"}, {"compound": "N-(2-(4-Acetamido-3,5-dichlorophenyl)-1-aminoethylidene)-3-(4-fluorophenyl)-3-(methoxyimino)propanamide [Example 15]", "IC50": "< 100"}, {"compound": "N-(2-(4-Acetamido-3,5-dichlorophenyl)-1-aminoethylidene)-3-(ethoxyimino)-3-(4-methoxyphenyl)propanamide [Example 5]", "IC50": "< 100"}, {"compound": "N-(1-Amino-2-(4-amino-3,5-dichlorophenyl)ethylidene)-3-(methoxyimino)-3-phenylpropanamide [Example 9]", "IC50": "100 to 1000"}, {"compound": "CON=C(CC(=O)/N=C(\\N)NCc1cc(Cl)c(N)c(Cl)c1)c1c[nH]c2ccccc12", "note": "[Example 20, N-((4-amino-3,5-dichlorobenzylamino)(amino)methylene)-3-(1H-indol-3-yl)-3-(methoxyimino)propanamide]", "IC50": "100 to 1000"}, {"compound": "N-(1-Amino-2-(4-amino-3,5-dichlorophenyl)ethylidene)-3-(ethoxyimino)-3-(4-methoxyphenyl)propanamide [Example 6]", "IC50": "100 to 1000"}, {"compound": "CON=C(CC(=O)/N=C(\\N)Cc1cc(Cl)c(NC(C)=O)c(Cl)c1)c1ccc(OC)cc1", "note": "[Example 1, N-(2-(4-Acetamido-3,5-dichlorophenyl)-1-aminoethylidene)-3-(methoxyimino)-3-(4-methoxyphenyl)propanamide]", "IC50": "< 100"}, {"compound": "N-(1-Amino-2-(3,5-dichlorophenyl)ethylidene)-3-(methoxyimino)-3-(4-methoxyphenyl)propanamide [Example 3]", "IC50": "> 1000"}, {"compound": "N-(1-Amino-2-(4-amino-3,5-dichlorophenyl)ethylidene)-3-(methoxyimino)-3-(4-methoxyphenyl)propanamide [Example 2]", "IC50": "100 to 1000"}, {"compound": "CON=C(CC(=O)/N=C(\\N)NCc1cc(C)c(C(=O)CN(C)C)c(Cl)c1)c1c[nH]c2ccccc12", "note": "[Example 22, N-((3-chloro-4-(2-(dimethylamino)acetyl)-5-methylbenzylamino)(amino)-methylene)-3-(1H-indol-3-yl)-3-(methoxyimino)propanamide]", "IC50": "100 to 1000"}, {"compound": "CON=C(CC(=O)/N=C(\\N)NCc1cc(Cl)c(NC(C)=O)c(Cl)c1)c1c[nH]c2ccccc12", "note": "[Example 21, N-((4-acetamido-3,5-dichlorobenzylamino)(amino)methylene)-3-(1H-indol-3-yl)-3-(methoxyimino)propanamide]", "IC50": "< 100"}, {"compound": "COc1ccc(C(CC(=O)/N=C(\\N)NCc2cc(Cl)c(N)c(Cl)c2)=NOCC(C)C)cc1", "note": "[Example 19, N-((4-amino-3,5-dichlorobenzylamino)(amino)methylene)-3-(isobutoxyimino)-3-(4-methoxyphenyl)propanamide]", "IC50": "> 1000"}]}]}
